Structures are written as SMILES.

What all share (type): organism-based
Common to all, as to settings: in vivo

The nature of series [1]: Acute toxicity in po dosed mouse.
The nature of series [2]: Acute toxicity in ip dosed rat.
The species named for a further series is Homo sapiens. As to the kind of experiment: Acute toxicity in human.

With `[O-][n+]1ccc(O)c(O)c1-c1c(O)c(O)cc[n+]1[O-]` [ORELLANINE], the figures for the LD50 (in series [1]; in series [2]; in the series filed under Homo sapiens) were 12 mg/kg, 5 mg/kg and 29 g, respectively.

The values above are taken from ChEMBL document CHEMBL2151028, “Analysis of the mushroom nephrotoxin orellanine and its glucosides” (J Nat Prod, 2012).
